Laboratory results reported in patent US20160002643A1, “Compositions And Methods To Enhance Protein Expression” (priority 2014, published 2016).
Entries after “also recorded” stand apart in the source; their conditions may differ.

Assays:
[1] = system: induction of co-transfected genes by pLKO.1c; test: Drug inhibition experiments on pLKO.1c induction of co-transfected genes; format: cell-based; settings: p38 inhibitor 10 μM 24 hr; Mnk1 inhibitor 2 nM 40 hr
Procedure: The Mnk1 inhibitor (Calbiochem) was added at 2 nM for 40 hr, and the p38 inhibitor (SB203580) was added at 10 μM for 24 hr prior to harvesting transfections.

[2] = system: EGFP, ER-mCherry or mCherry expression in 293 cells; test: FACS / fluorescence analysis of co-transfected EGFP and mCherry expression; format: cell-based, human; settings: 2.5 ng EGFP expression plasmid
Procedure: The average mean fluorescence and range of duplicate transfections of 5 μg of pLKO.1c or pLKΔHP plasmids into 293 cells was determined in the presence or absence of the indicated amount of pEGFP vector relative to the pcDNA control. […]
Calcium phosphate transfection of 293 cells was performed in triplicate with 5 μg of the pTRE plasmids and 1 μg of the transactivator as indicated. All cells were incubated with 300 ng/ml DOX at 7 hr post-transfection prior to FACS analysis at 48 hr. The mean and standard deviations of triplicates are reported relative to pTRE3G-BI-mCherry in the absence of transactivator. All values (lanes 2, 3, and 4) were highly statistically significant (p<0.0001) relative to values from lane 1 as was lane 3 relative to 4.
Transfections were performed as in panel B except that samples without the pTRE plasmids were included (pcDNA3). All transfections contained 2.5 ng of the EGFP expression plasmid. Without the transactivator, pTRE-Psi-sh elevated GFP expression ˜10-fold compared to pcDNA3 (p<0.0001; lanes 5 and 1) and ˜6-fold compared to pTRE-3G-BI-mCherry (p<0.0001; lanes 5 and 3). […]

| Compound | effect of inhibitor on induction of co-transfected genes by pLKO.1c [1] | super-induction of co-transfected GFP/EGFP (in words) [2] |
| --- | --- | --- |
| Nc1ncnc2n[nH]c(Nc3ccc(F)cc3)c12 [CGP57380] | no observable effect | – |
| C[S+]([O-])c1ccc(-c2nc(-c3ccncc3)c(-c3ccc(F)cc3)[nH]2)cc1 (stereo not drawn) [SB203580] | no effect | – |
| pMT2: adenoviral gene containing plasmid on a pBR322 backbone expressing Ad VA-RNA I, SEQ ID NO:07 | – | showed super-induction of GFP; also recorded: comparable to super-induction of GFP by pLKO.1e |
